Format in all cases: in vivo
For assay [1], the system named is Botrytis cinerea. Kind of assay: Botrytis cinerea, gray mould, preventative test on bean leaf disks. The settings on record: application rate 200 ppm, assessed 3 days after inoculation, 0=no control, 100%=complete control. The method, then: Botrytis cinerea: Gray Mould, Preventative Test Botrytis cinerea (Gray mould): Bean leaf disks are placed on agar in multiwell plates (24-well format) and sprayed with the formulated (2% Dimethylsulfoxid, 0,025% Tween 20) test solutions. After drying, the leaf disks are inoculated with a spore suspension of the fungus (60′000 conidia/ml). After appropriate incubation, the preventive fungicidal activity of a compound is assessed 3 days after inoculation as disease damage on the leaf disks and calculated as percent efficacy relative to untreated infected control. (0=no control of Botrytis cinerea, 100%=complete control). In this test, compounds listed in Table P above show good activity.

Assay [2] has as its system Erysiphe graminis f.sp. tritici. Kind of assay: Erysiphe graminis f.sp. tritici, wheat powdery mildew, preventative test on wheat leaf segments. The settings on record: Blumeria graminis, foliar, 168 h, application rate 200 ppm, assessed 7 days after inoculation, 0=no control, 100%=complete control, read-out: preventive fungicidal activity, percent efficacy relative to untreated infected control. The method, then: Erysiphe graminis f.sp. tritici: Wheat Powdery Mildew, Preventative Test Erysiphe graminis f.sp. tritici (Wheat powdery mildew): Wheat leaf segments are placed on agar in multiwell plates (24-well format) and sprayed with the formulated (2% Dimethylsulfoxid, 0,025% Tween 20) test solutions. After drying, the leaf disks are inoculated with spores of the fungus (50 conidia/mm2). After appropriate incubation, the preventive fungicidal activity of a compound is assessed 7 days after inoculation as disease damage on the leaf disks and calculated as percent efficacy relative to untreated infected control. (0=no control of Erysiphe graminis f.sp. tritici, 100%=complete control). In this test, compounds listed in Table P above show good activity.

For assay [3], the system named is Puccinia recondita. The assay can be described thus: Puccinia recondita, brown rust of wheat, preventative test on wheat leaf segments. The settings on record: foliar, 192 h, application rate 200 ppm, assessed 8 days after inoculation, 0=no control, 100%=complete control, read-out: preventive fungicidal activity, percent efficacy relative to untreated infected control. The method, then: Puccinia recondite: Brown Rust of Wheat, Preventative Test Puccinia recondita (Brown rust): Wheat leaf segments are placed on agar in multiwell plates (24-well format) and sprayed with the formulated (2% Dimethylsulfoxid, 0,025% Tween 20) test solutions. After drying, the leaf disks are inoculated with a spore suspension of the fungus (45'000 conidia/ml). After appropriate incubation, the preventive fungicidal activity of a compound is assessed 8 days after inoculation as disease damage on the leaf disks and calculated as percent efficacy relative to untreated infected control (0=no control of Puccinia recondita, 100%=complete control). In this test, compounds listed in Table P above show good activity.

Assay [4] deals with Puccinia recondita. Kind of assay: Puccinia recondita, brown rust of wheat, curative test on wheat leaf segments. The note with it: foliar, 192 h, application rate 200 ppm, wheat leaf segments treated one day after inoculation, assessed 8 days after inoculation, 0=no control, 100%=complete control, read-out: curative fungicidal activity, percent efficacy relative to untreated infected control.

SMILES strings stand for the structures.

On to `CCN(C)/C=N/c1cc(Br)c(Oc2ccc(Cl)c(C(F)(F)F)c2)nc1C` [P.29], for which the “preventive fungicidal activity, percent efficacy relative to untreated infected control” value in assay [1] was “at least 50%”. Also, the pest or weed control at 200 ppm in assay [2], in assay [3] and in assay [4] was no less than 50% throughout.
